In PubChem BioAssay (NCI):
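All cell lines were grown in 96-well plates and treated with compound for 48 hours. GI50 = concentration required for 50% inhibition of growth. TGI marks complete inhibition of growth.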

What was measured:
Assay in all cases: inhibition of tumour cell growth, NCI panel, 48 h
[1] = tested on: SR leukemia
[2] = tested on: K-562 leukemia
[3] = tested on: A549 NSCLC
[4] = tested on: HCC-2998 colon
[5] = tested on: NCI-H226 lung
[6] = tested on: LOX IMVI melanoma
[7] = tested on: SF-295 CNS
[8] = tested on: 786-0 renal
[9] = tested on: KM12 colon
[10] = tested on: SK-OV-3 ovarian

Cc1cccc(C(C)(C)C)c1NC(=O)CC1C(=O)Nc2ccccc2S1=O (stereo unspecified)
TGI [1]: 87.8 µM | TGI [2]: > 100 µM | TGI [3]: > 100 µM | TGI [4]: > 100 µM | TGI [5]: > 100 µM | TGI [6]: > 100 µM | TGI [7]: > 100 µM | TGI [8]: > 100 µM | TGI [9]: > 100 µM

COc1ccc(/C=C/C(=O)c2ccc(Nc3ncnc4ccccc34)cc2)cc1OC
GI50 [1]: 2.04 µM | TGI [1]: 6.36 µM | GI50 [3]: 3.66 µM | TGI [3]: > 100 µM | GI50 [4]: 3.22 µM | TGI [4]: 11.8 µM | GI50 [5]: 3.53 µM | TGI [5]: 31.9 µM | GI50 [6]: 2.81 µM | TGI [6]: 10.4 µM | GI50 [10]: 4.23 µM | TGI [10]: 35.5 µM | GI50 [7]: 6.25 µM | TGI [7]: > 100 µM | GI50 [8]: 7.96 µM | TGI [8]: > 100 µM | GI50 [9]: 3.45 µM | TGI [9]: > 100 µM

CC(C)(C)Cn1c(N)nc2ccc(-c3[nH]c(C(C)(C)C)nc3-c3ccc(F)cc3)nc21
GI50 [1]: 10.5 µM | TGI [1]: 47.9 µM | GI50 [2]: 3.73 µM | TGI [2]: > 72.8 µM | GI50 [3]: 8.38 µM | TGI [3]: 28.7 µM | GI50 [4]: 11.1 µM | TGI [4]: 24.1 µM | GI50 [5]: 12.2 µM | TGI [5]: 35.9 µM | GI50 [6]: 12.8 µM | TGI [6]: 27.5 µM | GI50 [10]: 4.36 µM | TGI [10]: 18.5 µM | GI50 [7]: 7.82 µM | TGI [7]: 22 µM | GI50 [8]: 9.75 µM | TGI [8]: 25.9 µM | GI50 [9]: 10.3 µM | TGI [9]: 23.9 µM

Cc1ccc(NC(=O)c2ccnc(C(F)(F)F)c2)cc1-c1cc(OCCO)nc(N2CCOCC2)c1
GI50 [1]: 0.613 µM | TGI [1]: > 100 µM | GI50 [2]: 1.86 µM | TGI [2]: 41.6 µM | GI50 [3]: 3.21 µM | TGI [3]: 28.9 µM | GI50 [4]: 0.464 µM | TGI [4]: 10 µM | GI50 [5]: 2.81 µM | TGI [5]: 34.6 µM | GI50 [6]: 0.147 µM | TGI [6]: 4.26 µM | GI50 [10]: 6.39 µM | TGI [10]: > 100 µM | GI50 [7]: 3.57 µM | TGI [7]: 17.6 µM | GI50 [8]: 6.29 µM | TGI [8]: 38.2 µM | GI50 [9]: 2.28 µM | TGI [9]: 22.1 µM

CCCCCCN1C(=O)/C(=c2\sc3n(c2=O)C2C(NN=3)N(CC)C(=O)N2CC)c2ccccc21 (stereo unspecified)
GI50 [1]: 1.73 µM | TGI [1]: > 50 µM | GI50 [2]: 1.89 µM | TGI [2]: > 50 µM | GI50 [3]: 1.47 µM | TGI [3]: > 50 µM | GI50 [4]: 5.83 µM | TGI [4]: > 50 µM | GI50 [6]: 1.53 µM | TGI [6]: > 50 µM | GI50 [10]: 2.67 µM | TGI [10]: > 50 µM | GI50 [7]: 1.45 µM | TGI [7]: > 50 µM | GI50 [8]: 1.6 µM | TGI [8]: > 50 µM | GI50 [9]: 1.46 µM | TGI [9]: > 50 µM

CNC(=O)c1cc(Oc2ccc3nc(NC(=O)Nc4ccc(Cl)c(Cl)c4)sc3c2)ccn1
GI50 [1]: 6.47 µM | TGI [1]: > 100 µM | GI50 [2]: > 100 µM | TGI [2]: > 100 µM | GI50 [4]: 5.04 µM | TGI [4]: > 100 µM | GI50 [5]: 2.28 µM | TGI [5]: 4.58 µM | GI50 [6]: 1.82 µM | TGI [6]: 3.52 µM | GI50 [10]: 2.24 µM | TGI [10]: 4.09 µM | GI50 [7]: 1.53 µM | TGI [7]: 3.13 µM | GI50 [8]: 2.26 µM | TGI [8]: 5.11 µM | GI50 [9]: 3 µM | TGI [9]: > 100 µM

Cn1c2ccccc2c2c(=O)n(CCCC(=O)NCC(=O)OC(=NC3CCCCC3)NC3CCCCC3)c3c(-c4ccccc4)nnn3c21
GI50 [1]: 3.04 µM | TGI [1]: 5.09 µM | GI50 [2]: 23 µM | TGI [2]: > 100 µM | GI50 [3]: 38 µM | TGI [3]: > 100 µM | GI50 [4]: 10.2 µM | TGI [4]: 26.8 µM | GI50 [5]: 40 µM | TGI [5]: > 100 µM | GI50 [6]: 13.1 µM | TGI [6]: 97.3 µM | GI50 [7]: > 100 µM | TGI [7]: > 100 µM | GI50 [8]: 18.5 µM | TGI [8]: 45.1 µM | GI50 [9]: 31.3 µM | TGI [9]: > 100 µM

CCN(CC)CCC(=O)Nc1cccc2c1C(=O)c1c(c(O)c3ccccc3c1O)C2=O
GI50 [1]: 0.878 µM | TGI [1]: 52.4 µM | GI50 [2]: 2.67 µM | TGI [2]: 13.8 µM | GI50 [3]: 17.7 µM | TGI [3]: 57 µM | GI50 [4]: > 100 µM | TGI [4]: > 100 µM | GI50 [5]: 17.1 µM | TGI [5]: > 100 µM | GI50 [6]: 5.77 µM | TGI [6]: 23.7 µM | GI50 [10]: 85.3 µM | TGI [10]: > 100 µM | GI50 [7]: 12.8 µM | TGI [7]: > 100 µM | GI50 [8]: 2.08 µM | TGI [8]: 4.39 µM | GI50 [9]: 21.5 µM | TGI [9]: > 100 µM

CCCCCC(=O)N1c2ccccc2NC2=C(C(=O)CC(c3ccc(OC)c(OC)c3)C2)C1c1ccc(C(F)(F)F)cc1 (stereo unspecified)
GI50 [1]: > 100 µM | TGI [1]: > 100 µM | GI50 [2]: > 100 µM | TGI [2]: > 100 µM | GI50 [3]: > 100 µM | TGI [3]: > 100 µM | GI50 [4]: > 100 µM | TGI [4]: > 100 µM | GI50 [5]: > 100 µM | TGI [5]: > 100 µM | GI50 [6]: > 100 µM | TGI [6]: > 100 µM | GI50 [10]: > 100 µM | TGI [10]: > 100 µM | GI50 [7]: > 100 µM | TGI [7]: > 100 µM | GI50 [8]: > 100 µM | TGI [8]: > 100 µM | GI50 [9]: > 100 µM | TGI [9]: > 100 µM

C=CCOc1cc2c(cc1C(C)c1ccc(OC)cc1)OCO2 (stereo unspecified)
TGI [1]: 0.695 µM | TGI [2]: > 100 µM | TGI [3]: > 100 µM | TGI [4]: 12.7 µM | TGI [5]: 40.2 µM | TGI [6]: > 83.9 µM | TGI [7]: 0.817 µM | TGI [8]: > 100 µM | TGI [9]: 65.9 µM

O=C(CNC(=O)c1cccc2ccccc12)Nc1ccccc1Oc1cccc(O)c1
GI50 [1]: 1.05 µM | TGI [1]: > 25 µM | GI50 [2]: 1.05 µM | TGI [2]: > 25 µM | GI50 [3]: 9.64 µM | TGI [3]: > 25 µM | GI50 [4]: > 25 µM | TGI [4]: > 25 µM | GI50 [5]: > 25 µM | TGI [5]: > 25 µM | GI50 [6]: 15 µM | TGI [6]: > 25 µM | GI50 [10]: 13 µM | TGI [10]: > 25 µM | GI50 [7]: 2.2 µM | TGI [7]: > 25 µM | GI50 [8]: 9.93 µM | TGI [8]: > 25 µM | GI50 [9]: 2.18 µM | TGI [9]: > 25 µM

N#C/C(=C\c1cn(-c2ccccc2)c2ccccc12)C(=O)O
GI50 [1]: 68.8 µM | TGI [1]: > 100 µM | GI50 [2]: 71.7 µM | TGI [2]: > 100 µM | GI50 [3]: 42.9 µM | TGI [3]: > 100 µM | GI50 [4]: 49.5 µM | TGI [4]: > 100 µM | GI50 [6]: 3.71 µM | TGI [6]: > 100 µM | GI50 [10]: 71.4 µM | TGI [10]: > 100 µM | GI50 [7]: 28.1 µM | TGI [7]: > 100 µM | GI50 [8]: 61.2 µM | TGI [8]: > 100 µM | GI50 [9]: 30.1 µM | TGI [9]: > 100 µM

COc1ccc(C2=NNC(c3ccc(-c4ccc(OC)cc4[N+](=O)[O-])o3)C2)cc1 (stereo unspecified)
GI50 [1]: 20.2 µM | TGI [1]: > 100 µM | GI50 [2]: 36.4 µM | TGI [2]: > 100 µM | GI50 [3]: 39.5 µM | TGI [3]: > 100 µM | GI50 [4]: 36.9 µM | TGI [4]: > 100 µM | GI50 [6]: 41.9 µM | TGI [6]: > 100 µM | GI50 [10]: 49.7 µM | TGI [10]: > 100 µM | GI50 [7]: 29.5 µM | TGI [7]: > 100 µM | GI50 [8]: 48.8 µM | TGI [8]: > 100 µM | GI50 [9]: 27.4 µM | TGI [9]: > 100 µM
